Measurements published in US4686283A, “Analogs of transforming and epidermal growth factor fragments for therapy and diagnosis” (Syntex (U.S.A.) Inc., priority 1985, dated 1987).
Where a SMILES comes first, the peptide text is derived from it. Bridges are numbered along the chain shown (N, C = ends).

Key:
[1] = tested on: rabbit anti-TGF α-KLH IgG; test: Competitive radioimmunoassay: iodinated rabbit anti-TGF α-KLH IgG preincubated with inhibitor, then bound to BSA-peptide complex coated wells; format: binding; settings: no inhibitor 8400 ± 600 cpm
Method: A. Rabbit IgG antibodies to the compound [drawing 24] (anti-TGF α-KLH), as prepared in accordance with Example 7, were iodinated by the chloramine-T method. To 1 mg anti-TGF α-KLH antibody in 0.2M phosphate buffer (pH 7.6) was added 20 μl of a 2 mg/ml solution of chloramine-T and 1mCiNa^125 I for 3 minutes at room temperature. 1 mg KI was added and excess free iodine removed by chromatography on a Sephadex G-50 column. The specific activity of the antibodies varied between 200,000 and 400,000 counts per minute (cpm)/μg protein. Flexible polyvinylchloride plates were coated with a 1 mg/ml solution of BSA-peptide complex (prepared in accordance with Example 6A) in phosphate buffered saline (PBS) for 16 hours at 4° C. Plates were countered with a solution containing BSA and 1% Bovine gamma globulin.
These solutions were then added to the coated wells for an additional 2 hours at 37° C. After several washes with PBS containing 0.1% BSA, individual wells were cut apart and counted in a gamma counter.

LE II cells [2] = test: Inhibition of TGFα-induced cell proliferation ([3H]-methylthymidine incorporation); format: cell-based, Murine; settings: induced by 2 × 10^-9 M TGFα; for % of thymidine incorporation: control 420 ± 30
Method: (§1) LE II cells were grown to confluence in 48 well cluster dishes and starved for two days in DMEM containing 0.5% fetal calf serum.
(§2) The percent enhancement of thymidine incorporation was used as the measure of cell proliferation. The lower the percentage of thymidine incorporation, the lower the rate of cell proliferation. Inhibition of EGF-induced cell proliferation by the foregoing compounds is reflected in Table II. Table III gives the inhibition of TGFα-induced cell proliferation.

EGF receptors = molecular target: T1, EGF receptors (Mus musculus, UniProt Q01279); test: Competitive antagonism of 125I-EGF binding to LE II cells (Scatchard plots); set-up: species or system Murine; settings: in the presence of 20 μg/ml peptide, 4° C.; for apparent association constant for EGF: lower = more effective competitor
T1 construct: endogenous in cells; host or cells: LE II murine lung endothelial cells
Method: Murine lung endothelial cells identified as LE II were grown to confluence in 24 well cluster dishes in Dulbecco's minimal essential medium (DMEM) containing 10% fetal calf serum. Cells were washed twice with DMEM containing 1% bovine serum albumin and buffered at pH 7.4 with 50 mM Hepes buffer (DMEM-BSA). […] At the end of the incubation period, cells were washed three times with DMEM-BSA, lysed in 0.1N sodium hydroxide and cell-associated radioactivity was determined in a gamma counter.

LE II cells [3] = test: Inhibition of EGF-induced cell proliferation ([3H]-methylthymidine incorporation); format: cell-based, Murine; settings: induced by 2 × 10^-9 M EGF; for % Enhancement of thymidine incorporation: control 380 ± 20
Method: as §1, §2

Row | Molecule | cpm of iodinated anti-TGF α-KLH IgG bound to coated wells ([1]; inhibitor 10 ng/ml) [cpm] | cpm of iodinated anti-TGF α-KLH IgG bound to coated wells ([1]; inhibitor 100 ng/ml) [cpm] | cpm of iodinated anti-TGF α-KLH IgG bound to coated wells ([1]; inhibitor 1000 ng/ml) [cpm] | apparent association constant for EGF (EGF receptors) [M⁻¹] | % Enhancement of thymidine incorporation, second figure relative to control = 100 (ratio of TGF α fragment/EGF counts per minute) (LE II cells [3]; peptide 10^-5 M) [%] | % Enhancement of thymidine incorporation (LE II cells [3]; peptide 10^-5 M) [%] | % Enhancement of thymidine incorporation, second figure relative to control = 100 (ratio of TGF α fragment/EGF counts per minute) (LE II cells [3]; peptide 10^-6 M) [%] | % Enhancement of thymidine incorporation (LE II cells [3]; peptide 10^-6 M) [%] | % Enhancement of thymidine incorporation, second figure relative to control = 100 (ratio of TGF α fragment/EGF counts per minute) (LE II cells [3]; peptide 10^-7 M) [%] | also measured
1 | TGFα: native human transforming growth factor alpha, used as inhibitor in the radioimmunoassay | 7600 ± 400 | 5100 ± 700 | 3800 ± 400 | – | – | – | – | – | – | cpm of iodinated anti-TGF α-KLH IgG bound to coated wells ([1]; inhibitor 1 ng/ml): 8600 ± 800 cpm
2 | CC(C)[C@@H]1NC(=O)CNC(=O)[C@H](C(C)C)NC(=O)[C@H](Cc2ccc(O)cc2)NC(=O)CNC(=O)[C@H](CO)NC(=O)[C@H](Cc2c[nH]cn2)NC(=O)[C@@H](N)CSSC[C@@H](C(=O)O)NC(=O)[C@H](CCCNC(=N)N)NC1=O [Peptide 1] (H-CHSGYVGVRC-OH; disulfide 1-10) | – | – | – | 1.5e+10 | 70 | 265 ± 15 | 95 | 360 ± 20 | 103 | % of thymidine incorporation, second figure relative to control = 100 (LE II cells [2]; peptide 10^-5 M): 79%; % of thymidine incorporation (LE II cells [2]; peptide 10^-5 M): 330 ± 10%; % of thymidine incorporation, second figure relative to control = 100 (LE II cells [2]; peptide 10^-6 M): 95%; % of thymidine incorporation (LE II cells [2]; peptide 10^-6 M): 400 ± 20%; % of thymidine incorporation, second figure relative to control = 100 (LE II cells [2]; peptide 10^-7 M): 95%; % of thymidine incorporation (LE II cells [2]; peptide 10^-7 M): 400 ± 20%
3 | CC(C)[C@@H]1NC(=O)[C@H](Cc2ccc(O)cc2)NC(=O)CNC(=O)[C@H](CO)NC(=O)[C@H](Cc2c[nH]cn2)NC(=O)[C@@H](N)CSSC[C@@H](C(=O)O)NC(=O)[C@H](CCCNC(=N)N)NC(=O)[C@H](C)NC(=O)CNC1=O [Peptide 2] (H-CHSGYVGARC-OH; disulfide 1-10) | – | – | – | 1.5e+10 | 64 | 245 ± 25 | 97 | 370 ± 15 | 100 | % Enhancement of thymidine incorporation (LE II cells [3]; peptide 10^-7 M): 380 ± 20%
4 | EGF: epidermal growth factor | 8800 ± 400 | 8200 ± 500 | 7600 ± 800 | – | – | – | – | – | – | cpm of iodinated anti-TGF α-KLH IgG bound to coated wells ([1]; inhibitor 10,000 ng/ml): 7800 ± 600 cpm
5 | H-Cys-His-Ser-Gly-Tyr-Val-Gly-Val-Arg-Cys-OH (H-CHSGYVGVRC-OH; disulfide 1-10 (inferred)) [TGFα fragment peptide] | – | – | – | – | – | – | – | – | – | extrapolated saturation binding of 125I-EGF (EGF receptors; one hour, 0.51±0.03 nM in its absence): 0.5 ± 0.02 nM
